# From ChEMBL document CHEMBL1125992, “Evaluation of bouvardin, deoxybouvardin, and RA-I - RA-VII partial structures: reassignment of the pharmacophore” (Bioorg Med Chem Lett, 1991)
# Starred links: 1 amine or outer side, 2 acyl side, 3 side chain; linkers in the order of their positions; H or OH if unused. Non-standard residues stand in square brackets, D forms with d. Residues, ends and D or L forms follow the SMILES beside them. ξ: configuration not given here. X1 = CN(CCc1ccc(Oc2cccc(CCC(=O)[*:2])c2)cc1)[*:1]; NMeY = CN[C@@H](Cc1ccc(O)cc1)C(=O)O; ξA = CC(N)C(=O)O
# Tested on: L1210
# Experiment: In vitro cytotoxicity against L1210 (murine leukemia) cells.
# Type: functional, cell-based
# Settings: Mus musculus
row,SMILES,IC50
1,COc1ccc(C[C@H]2C(=O)N[C@@H](C)C(=O)N(C)CC(=O)N(C)CC(=O)N[C@H](C)C(=O)N[C@@H](C)C(=O)N2C)cc1,> 100 µg/mL
2,COc1ccc(C[C@H]2C(=O)N[C@@H](C)C(=O)N[C@H](C)C(=O)N[C@@H](C)C(=O)N2C)cc1,20 µg/mL
3,COC(=O)[C@@H]1Cc2ccc(OC)c(c2)Oc2ccc(cc2)C[C@H](N(C)C(=O)OCc2ccccc2)C(=O)N1,0.05 µg/mL
4,COc1ccc(C[C@H]2C(=O)N[C@@H](C)C(=O)N(C)Cc3ccccc3CC(=O)N[C@H](C)C(=O)N[C@@H](C)C(=O)N2C)cc1,25 µg/mL
5,COc1ccc(C[C@H]2C(=O)N[C@@H](C)C(=O)N(C)[C@H]3C(=O)N(C)[C@H]3C(=O)NC(C)C(=O)N[C@@H](C)C(=O)N2C)cc1 (stereo partly specified),50 µg/mL
6,COc1ccc(C[C@H]2C(=O)N[C@@H](C)C(=O)N(C)[C@@H](Cc3ccc(O)cc3)C(=O)N(C)[C@@H](Cc3ccc(O)cc3)C(=O)N[C@H](C)C(=O)N[C@@H](C)C(=O)N2C)cc1,> 100 µg/mL
7,COC(=O)[C@@H]1Cc2ccc(OC)c(c2)Oc2ccc(cc2)CCC(=O)N1,> 100 µg/mL
8,COc1ccc2cc1Oc1ccc(cc1)CCC(=O)NCC2,> 100 µg/mL
9,COC(=O)[C@@H]1Cc2ccc(OC)c(c2)Oc2ccc(cc2)C[C@H](N(C)C(=O)OC(C)(C)C)C(=O)N1,0.06 µg/mL
10,CN[C@H]1Cc2ccc(O)c(c2)Oc2ccc(cc2)C[C@@H](C(=O)O)N(C)C(=O)[C@H](C)NC(=O)[C@H](Cc2ccc(OC)cc2)N(C)C(=O)[C@H](C)NC(=O)[C@@H](C)NC1=O,10 µg/mL
11,COC(=O)[C@@H]1Cc2ccc(OC)c(c2)Oc2ccc(cc2)C[C@H](N(C)C(=O)OCc2ccccc2)C(=O)N1C,0.04 µg/mL
12,COc1ccc2cc1Oc1ccc(cc1)CCC(=O)N(C)CC2,> 100 µg/mL
13,O=C1CCc2ccc(cc2)Oc2cccc(c2)CCN1,> 100 µg/mL
14,CN1CCc2cccc(c2)Oc2ccc(cc2)CCC1=O,> 100 µg/mL
15,COc1ccc(C[C@H]2C(=O)N[C@@H](C)C(=O)N(C)[C@H]3Cc4ccc(cc4)Oc4cc(ccc4OC)C[C@H](NC3=O)C(=O)N[C@H](C)C(=O)N[C@@H](C)C(=O)N2C)cc1,0.001 µg/mL
16,COC(=O)[C@@H]1Cc2ccc(OC)c(c2)Oc2ccc(cc2)C[C@H](N(C)C(=O)OC(C)(C)C)C(=O)N1C,0.03 µg/mL
17,COC(=O)[C@@H]1Cc2ccc(cc2)Oc2cc(ccc2OC(=O)c2ccccc2)C[C@H](N(C)C(=O)OCc2ccccc2)C(=O)NC(C)C(=O)N[C@@H](C)C(=O)N(C)[C@@H](Cc2ccc(OC)cc2)C(=O)N[C@@H](C)C(=O)N1C (stereo partly specified),10 µg/mL
18,COc1ccc(C[C@H]2C(=O)N[C@@H](C)C(=O)N(C)[C@H]3Cc4ccc(cc4)Oc4cc(ccc4O)C[C@@H](C(=O)N[C@H](C)C(=O)N[C@@H](C)C(=O)N2C)N(C)C3=O)cc1,0.002 µg/mL
19,COC(=O)[C@@H]1Cc2ccc(O)c(c2)Oc2ccc(cc2)CCC(=O)N1,> 100 µg/mL
20,COc1ccc(C[C@H]2C(=O)N[C@@H](C)C(=O)N(C)[C@H]3Cc4ccc(cc4)Oc4cc(ccc4OC)C[C@@H](C(=O)N[C@H](C)C(=O)N[C@@H](C)C(=O)N2C)N(C)C3=O)cc1,0.002 µg/mL
21,COc1ccc(C[C@H]2C(=O)N[C@@H](C)C(=O)N(C)CCc3ccc(cc3)Oc3cccc(c3)CCC(=O)NC(C)C(=O)N[C@@H](C)C(=O)N2C)cc1 (stereo partly specified) (cyclo(A[NMeY](Me)A[X1][ξA])),20 µg/mL
